From patent publication US5753516A, “Screening method for ligands of the EBI-1 receptor” (priority 1995, dated 1998)
pKd: −log10 of the molar value. “Also recorded” adds a separate entry of the source.

What was measured:
opiate μ-receptor = settings: sub-antinociceptive doses; cited from earlier work
EBI1 [1] = biological target: T1, EBI1 (Homo sapiens, UniProt P32248)
T1 sequence (P32248 25-378): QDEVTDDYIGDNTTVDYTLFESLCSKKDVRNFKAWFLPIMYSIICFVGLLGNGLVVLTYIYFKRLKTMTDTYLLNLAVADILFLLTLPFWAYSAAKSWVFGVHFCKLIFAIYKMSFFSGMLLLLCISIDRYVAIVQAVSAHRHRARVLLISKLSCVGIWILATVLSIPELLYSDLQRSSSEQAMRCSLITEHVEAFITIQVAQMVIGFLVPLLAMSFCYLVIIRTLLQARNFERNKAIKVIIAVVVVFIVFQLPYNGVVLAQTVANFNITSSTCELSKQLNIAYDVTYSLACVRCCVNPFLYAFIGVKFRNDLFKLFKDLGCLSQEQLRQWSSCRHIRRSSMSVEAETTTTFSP
Description: (§1) Data are plotted as the concentration of free ^3 H-DPDPE (x-axis) vs specific binding of ^3 H-DPDPE (y-axis).

NALM 6 cells [2] = format: binding, human
EBI1 [3] = biological target: T1, EBI1; experiment: biochemical
Description: as §1

human T cells [4] = experiment: Migration of human peripheral blood T cells; format: cell-based
COS (Vector Control) = experiment: cAMP accumulation in COS cells (vector control); format: cell-based, monkey; settings: COS (Vector Control); MET-ENK 0.01 nM, naloxone 10 μM, forskolin 0.1 μM; controls 40.2 and 38.8
NALM 6 cells [5] = experiment: Migration (chemotaxis) of NALM 6 pre-B ALL cells; format: cell-based, human; settings: for % Response (with/without naloxone): 90 min, 10 µM
NALM 6 cells [6] = experiment: [Ca^2+ ]i response of NALM 6 / leukemia cells (Indo-1, flow cytometry); format: cell-based, human
Protocol: FIG. 15, Panels A-C. […] Cells were labeled with Indo-1 as previously described (Rabinovitch et al., 1986), washed twice in serum-free medium and held at 4° C. until flow cytometric analysis. The violet/blue fluorescence ratio was measured using previously described methods (Rabinovitch et al., 1986). Nonstimulated cells (measured in medium, alone) were used to establish a relative violet/blue ratio arbitrarily set at 1.0 as previously described (Rabinovitch). Calibration of [Ca^2+ ]i was carried out as previously described by Rabinovitch et al (1986) using the formula: [formula]
Rmax values were determined by measuring the maximum shift in indo violet/blue fluorescence for cells treated with 4 μM ionomycin. Rmin was measured as the minimum ratio for the violet blue fluorescence of ionomycin treated cells following the addition of 8 mM EGTA. […] The Kd (effective dissociation constant) was set at 250 nM.

LAZ 221 cells = experiment: Flow cytometry of surface molecule expression on LAZ 221 cells; format: cell-based, human; settings: LAZ 221, 100 fold excess of naloxone
Protocol: FIG. 4, Panels A-C. […] Data are presented as mean fluorescence intensities measured for 10,000 cells labeled with anti-CD9 or CD10 mAb. In Panel A, the NALM 6 Cells were incubated with MET-ENK (10^-7 M) for the times indicated. In Panel B, the LAZ 221 cells were incubated with MET-ENK at the doses indicated for 5 minutes at 37° C. […] The anti-CD9 and anti-CD10 mAb used for these experiments were of the IgG2a isotype.
Immunofluorescence Staining and Flow Cytometric Analysis of Cell Surface Molecules: Cells were resuspended at 1×10^6 /ml in PBS and then incubated for periods of 5 to 120 minutes at 37° C. with MET-ENK at doses of 0 to 10^-5 M. Incubations were terminated by transferring samples to an ice bath and then pelleting the cells by centrifugation at 1800 rpm for 5 minutes at 4° C.
Immunofluorescence staining was carried out in 4-ml tubes maintained in an ice water bath. […] Cells were subsequently fixed within a 2% solution of formalin and maintained in the dark at 10° C. until analyzed.
Flow cytometric analysis was performed using a FACS SCAN Flow Cytometer (Becton Dickinson, Mountain View, Calif.) equipped with a HP9000 Series computer and the Lysys System software analysis package. Data were collected as histograms depicting the fluorescence intensity for 5,000 to 10,000 cells per sample.
The non-binding IgG1 MOPC myeloma protein, anti-macrophage/monocyte specific CD14 (MO2; IgG2) and anti-T cell specific CD3 (OKT3; IgG2a) mAb were employed as nonreactive controls for measuring the autofluorescence of B cells.

NALM 6 cells [7] = experiment: Light scatter analysis of morphological response of NALM 6 cells; format: cell-based, human
Protocol: FIG. 2, Panels A and B. Methionine-enkephalin induces a morphological change in NALM 6 cells. […] Analysis of forward and right angle light scatter was performed using a Becton Dickinson FACS SCAN flow cytometer as described (Sklar et al., 1984). Histograms of light scatter were obtained by analyzing 10,000 cells per sample. Data are expressed as mean channel number (y-axis) vs concentration of MET-ENK (x-axis).
Forward and right angle light scatter analysis of the morphological response to MET-ENK: The effect of MET-ENK on cell morphology were measured using flow cytometric analysis of forward and right angle light scatter as previously described (Sklar et al., 1984). For these studies 10^6 cells were resuspended in one-ml of PBS, activated by the addition of MET-ENK or maintained in the PBS buffer alone, and then, incubated for 5 minutes at 37° C. […] Samples were analyzed on a Becton Dickinson FACS SCAN flow cytometer with excitation at 488 nm (Sklar et al., 1984). Histograms of light scattering were obtained by analyzing 10,000 cells for each sample. Data analysis was performed using the Lysys System software package.

NALM 6 cells [8] = experiment: MET-ENK-FITC binding to NALM 6 cells (flow cytometry, Scatchard); set-up: species or system human; settings: 5 μM naloxone
EBI1 [9] = biological target: T1, EBI1; settings: COS (EBI 1); MET-ENK 0.01 nM, naloxone 10 μM, forskolin 0.1 μM; controls 61.2 and 63.5
in vitro = settings: human, nalm 6 cells
[10] = tested on: freshly isolated lymphocytes and EBV transformed cell lines; settings: Borboni et al., 1989; cited from earlier work
PBMC = settings: cited from earlier work
[11] = tested on: lymphocytes and macrophages; settings: injection into cerebroventricles of rodents; cited from earlier work
PMN = settings: Falke and Fischer, 1985; cited from earlier work
human T cells [12] = settings: Heagy et al., 1990; cited from earlier work

## CC1(C)SSC(C)(C)[C@@H](NC(=O)[C@@H](N)Cc2ccc(O)cc2)C(=O)NCC(=O)N[C@@H](Cc2ccccc2)C(=O)N[C@H]1C(=O)O [DPDPE, [D-Pen^2,5]enkephalin]
Opiate μ-receptor
  effect on morphine antinociception: enhance the antinociception mediated via the opiate μ-receptor agonist morphine
EBI1 [1]
  binding to membranes of COS cells expressing lymphocyte R7G: specific, high affinity binding
Jurkat cells
  specific binding, % of total: 50-60%
NALM 6 cells [2]
  specific binding, % of total: 50-80%
EBI1 [3]
  pKd: 9.70

## C=CCN1CC[C@]23c4c5ccc(O)c4O[C@H]2C(=O)CC[C@@]3(O)[C@H]1C5 [Naloxone]
Human T cells [4]
  human lymphocyte / T cell migration: blocked the T cell chemotaxis to MET-ENK
COS (Vector Control)
  cAMP: 31.4 fmoles/cell × 10^3
NALM 6 cells [5]; MET-ENK 1 nM, naloxone 10^-5 M
  % Response (with/without naloxone): 43%
NALM 6 cells [5]; MET-ENK 100 nM, naloxone 10^-5 M
  % Response (with/without naloxone): 42%
NALM 6 cells [5]; migration to MET-ENK or spontaneous locomotion
  effect of naloxone on NALM 6 migration: inhibited the migration of NALM 6 cells to MET-ENK; also recorded: Spontaneous locomotion resulting from the random movement of unchallenged cells was equivalent for naloxone treated and nontreated cells
NALM 6 cells [5]; naloxone 10^-5 M, MET-ENK 100 nM
  cell counts, migration to MET-ENK with naloxone: 1476 cell counts
NALM 6 cells [5]; naloxone 10^-5 M, no MET-ENK, without naloxone 1647
  cell counts, spontaneous locomotion with naloxone: 1350 cell counts
NALM 6 cells [5]; spontaneous locomotion, naloxone 10^-5 M
  % Response (with/without naloxone): 82%
NALM 6 cells [6]
  [Ca^2+ ]i response: inhibited by naloxone
LAZ 221 cells
  effect on MET-ENK induction of CD9: totally blocked
NALM 6 cells [7]; 5 minutes at 37° C.
  morphological response (light scatter) of NALM 6 cells: inhibited by preincubation with naloxone
NALM 6 cells [7]; vs PBS alone
  baseline light scatter, naloxone alone: shifted the baseline measurement below that for the control
NALM 6 cells [8]
  effect of naloxone on MET-ENK(-FITC) binding: in the presence of naloxone this association is decreased; also recorded: blocked
Jurkat cells; ^3 H-DADLE, ^3 H-DPDPE, ^3 H-U69,593
  reversal of agonist binding by naloxone: a portion of the binding of these highly selective opiate receptor agonists was reversed by naloxone
EBI1 [9]
  cAMP: 76.4 fmoles/cell × 10^3
In vitro
  viability at 10 µM: ≥ 96%

## β-END: polypeptide β-endorphin
Human T cells [4]
  human lymphocyte / T cell migration: stimulate human lymphocyte migration
[10]
  sensitivity of binding to naloxone: insensitive to naloxone and not displaced by synthetic peptides containing MET-ENK residues
PBMC; PBMC
  blastogenic responses to T and B cell lectins: augment the blastogenic responses of PBMC to both T and B cell lectins
PBMC; lectin stimulated PBMC
  IFN-γ production: enhance IFN-γ production
[11]
  lymphocyte and macrophage migration into ventricles: elicited lymphocyte and macrophage migration into the ventricles
PMN
  onset of PMN morphological response: ≤ 2 minutes
Human T cells [12]
  human T cell migration: potent stimulants for the migration of isolated human T cells
